Experimental data: patent US20120088247A1, “MATERIALS AND METHODS FOR TREATING PATIENTS WITH TAXOXIFEN” (Indian University Research & Technology Corporatio, priority 2009, published 2012)
Blank lines part the entries; values can stand above or below the compound they belong to.

Key:
[1] = Plasma concentrations of tamoxifen and its metabolites (HPLC) in women with breast cancer taking tamoxifen, by UGT2B7 genotype and CYP2D6 score
Source text: Patients. […] Subjects for the registry were recruited from the Breast Oncology Program at the University of Michigan Comprehensive Cancer Center and the Indiana University Cancer Center. […] Patients were enrolled after they had completed all primary surgery, radiation, and adjuvant chemotherapy. Specimens and data from this registry has been sed for several other studies, as reported previously,[16],[6],[17].
Study design. […] At the indicated time points, medical histories, including a comprehensive list of current medications, were obtained, and blood samples (5 mL) were drawn. […] Blood was collected in heparin tubes, and plasma was separated within 1 hour of blood collection by centrifugation at 2060×g. All samples (plasma and whole blood) were transferred to cryogenic vials (Corning, Cambridge, Mass.), shipped to the laboratory of the Division of Clinical Pharmacology, Indiana University, on dry ice, and stored at −80° C. until analysis.
UGT 2B7 genotyping. Genomic deoxyribonucleic acid (DNA) was extracted from the leukocyte portion of whole blood by use of a QJAamp DNA Blood Mini Kit (Qiagen, Valencia, Calif.) and used for genotyping of UGT2B7 variants. UGT2B7 codon 268 genotypes were determined by real-time PCR assays using the TaqMan Drug Metabolism Genotyping Assay C—32449742—20 (Applied Biosystems, Foster City, Calif.) in the ABI 7900HT sequence detection system equipped with an autoloader in the Functional Genomics Core Facility at the Penn State College of Medicine. […] The same primers were used for both PCR and sequencing: sense, 5′-[…]-3′ (SEQ ID. No. 3), located +642-+670 from the UGT2B7 translation start site); and antisense, 5′-[…]-3′ (SEQ. ID. No. 4), located +1555-+1597 from the UGT2B7 translation start site.
CYP2D6 genotyping. Genomic DNA was extracted from whole blood. CYP2D6 genotyping was conducted using two different genotyping methods: The AmpliChip CYP450 Test (Roche Diagnostics, Indianapolis, Ind.) and the Luminex CYP450C CYP2D6 assay (TM Biosciences). The AmpliChip was used for 129 of the DNA samples. It tests for 33 CYP2D6 alleles (ie, *1 to *10AB, *11, *14A, *14B, *15, *17, *19, *20, *25, *26, *29 to *31, *35, *36, *40, *41, *1N, *2xN, *4xN, *10xN, *17xN, *35xN, and *41xN). The remaining 60 samples were genotyped using the Luminex CYP450 Test. It tests for 16 CYP2D6 alleles (ie, *2 through *12, *14, *15, *17, and *41). The genotypes of approximately 10-20% of the samples were confirmed by running both assays or by using independent Taqman or restriction fragment length polymorphism (RFLP) assays.
CYP2D6 Gene Score. The CYP2D6 alleles were assigned a value that reflects the expected relative activity of the CYP2D6 enzyme for which they code. Accordingly, fully functional CYP2D6 alleles (e.g. *1, *2, *33, *35) were assigned a score of 1. CYP2D6 alleles associated with reduced enzyme activity (e.g. *9,*10, *17, *29, *37, *41, *45, *46) were scored as 0.5.
CYP2D6 Inhibition Factor and CYP2D6 Activity Score. After calculating the expected activity of the CYP2D6 enzyme according to the genotype, the possible effects of known CYP2D6 inhibitors on the performance of the CYP2D6 protein were incorporated. […] This rule defines the CYP2D6 inhibition factor. The CYP2D6 Activity Score is expressed as the product of multiplying the CYP2D6 Gene Score by the Inhibitor factor, which is defined in the following equation: activity score=(gene score×inhibition factor),
In presenting CYP2D6 activity score data, an extensive metabolizer (EM) was defined as an individual with an activity score greater than 2; a poor metabolizer (PM) was defined with an activity score less than 1; and an intermediate metabolizer (IM) as an individual who has a score between 1 and 2.

[2] = literature refs [18],[19]; cited from earlier work

Increase in concentration due to gene-gene interaction ([1]; female, human, in vivo): 220%
Increase in endoxifen concentration ([1]; female, human, in vivo): 58%
Mean plasma endoxifen concentration, percent higher in UGT2B7*2/*2 group than in each of *1/*2 and *1/*1 groups ([1]; female, human, in vivo): 34%
Range of mean plasma endoxifen concentration by compound UGT2B7 genotype and CYP2D6 score ([1]; female, human, in vivo): 12 to 100 nM
Range of mean plasma endoxifen concentration over combined UGT2B7 genotype and CYP2D6 score groups ([1]; female, human, in vivo): 19 to 107 nM
Association of plasma concentration with UGT2B7 genotype ([1]; in vivo): significant
Compound: CC/C(=C(\c1ccc(O)cc1)c1ccc(OCCNC)cc1)c1ccccc1 [endoxifen, 4-hydroxy-N-desmethyl-tamoxifen]

Compound: CC/C(=C(\c1ccccc1)c1ccc(OCCN(C)C)cc1)c1ccccc1 [tamoxifen, Tamoxifen]
half-life [2]: 120 to 170 h

Association of plasma concentration with UGT2B7 genotype ([1]; FIG. 1, P<0.05 considered significant): not significantly associated
Mean plasma concentration, percent larger in the *2/*2 group ([1]; UGT2B7 *2/*2 group (FIG. 1A, 1D)): 42%
Compound: CC/C(=C(\c1ccccc1)c1ccc(OCCNC)cc1)c1ccccc1 [N-desmethyl-tamoxifen]
